Where no end group is shown, it is not given here. [ ]: non-standard residue; d: D form. Hyp = O=C(O)[C@@H]1C[C@@H](O)CN1

One assay concerns type 17 collagen gene. Put plainly: Gene expression test: mRNA level of type 17 collagen gene in epidermal cells (RT-PCR, corrected with GAPDH). It is filed as cell-based, human. Further details: key to Assessment (promoting action on type 17 collagen gene expression): samples with “++” were determined to have a significance in the promoting action on expression of the gene; In samples with “+”, the gene expression increase rate (%) exceeded 100; Samples with “−” were determined to have no significance in the promoting action on expression of the gene. As to conditions: NHEK cells; for Assessment (promoting action on type 17 collagen gene expression) / Gene expression increase rate (type 17 collagen gene): 1 mM final concentration, 72 hours; for Gene expression increase rate (type 17 collagen gene): control = 100. As to the method: (§1) First, normal human epidermal keratinocytes NHEK (NB) (manufactured by KURABO INDUSTRIES LTD.) were obtained as epidermal cells. The cells were seeded in a necessary number of commercially available dishes of ϕ60 mm at 1.25×10^4 cells per dish (5 mL of a cell dispersion liquid having a concentration of 0.25×10^4 cells/mL), and cultured in a serum-free medium (trade name: “HuMedia KG-2”, manufactured by KURABO INDUSTRIES LTD.) for 2 days. Then, the cells were confirmed to be subconfluent in the dishes, and the medium in the dishes was then replaced by a basal medium (trade name: “HuMedia KB-2”, manufactured by KURABO INDUSTRIES LTD.). In this way, epidermal cells for evaluating the mRNA level of the type 17 collagen gene and the mRNA level of the glutathione synthetase gene were prepared.
(§2) To the basal medium in the dishes, the peptide or the collagen peptide mixture was added to the concentrations shown in Tables 1 to 4, and the cells were cultured at 37° C. in an atmosphere at a carbon dioxide concentration of 5 vol % for 72 hours to prepare samples to be subjected to a gene expression test. In addition, a control sample obtained by adding only ion-exchanged water to the basal medium in the dish (hereinafter, also referred to as “Blank”) was prepared. This control sample was also cultured at 37° C. in an atmosphere at a carbon dioxide concentration of 5 vol % for 72 hours.
Next, by using a RNA extraction kit (trade name: “TRIzol (registered trademark) Reagent, manufactured by Life Technologies Japan Ltd.) in accordance with the protocol accompanying the kit, total RNA was extracted from the epidermal cells in the dish to obtain an extract containing total RNA for each sample. Subsequently, by using a cDNA preparation kit (trade name (product number): “High Capacity RNA-to-cDNA Kit (4387406)”, manufactured by Life Technologies Japan Ltd.) in accordance with the protocol accompanying the kit, reverse transcription was performed on RNA in the extract to obtain cDNA from the RNA in the extract. Further, real-time (RT)-PCR was performed on the cDNA by a DNA amplifying apparatus (trade name: “Step One Plus (TM) Real-Time PCR System”, manufactured by Applied Biosystems Inc.).
In the RT-PCR, the mRNA levels of type 17 collagen (manufactured by Life Technologies Japan Ltd., primer: Hs009900361_ml) as a target gene and glutathione synthetase (GSS, manufactured by Life Technologies Japan Ltd., primer: Hs01547656_ml) were measured. As an internal standard (correction gene), GAPDH was selected. For calculation of the mRNA level, a calibrated curve method was used. As the primer and the probe for the RT-PCR, those accompanying a reagent kit (trade name: “TaqMan (registered trademark) Gene Expression Assays, manufactured by Applied Biosystems Inc.) were used.
First, in the samples and the control sample, the mRNA levels (gene expression levels) of the two target genes (type 17 collagen and glutathione synthetase) were each calculated. Next, the mRNA levels of the two target genes were corrected with the mRNA level of GAPDH as a correction gene to obtain correction values in the samples and the control sample. Specifically, values obtained by dividing the mRNA levels of the two target genes by the mRNA level of GAPDH (relative values) were each determined.
Then, the ratio of the correction value obtained in each sample to the correction value in the control sample, which was defined as 100, was determined (gene expression increase rate (%)).
Further, the gene expression increase rate (%) was subjected to statistical processing to evaluate significance of the promoting action on gene expression of the type 17 collagen gene and the glutathione synthetase gene in each sample. […]

Assay [1] deals with glutathione synthetase gene. Put plainly: Gene expression test: mRNA level of glutathione synthetase gene in epidermal cells (RT-PCR, corrected with GAPDH). The class given is cell-based, human. Conditions: NHEK cells, 1 mM final concentration, 72 hours; for Gene expression increase rate (glutathione synthetase gene): control = 100. As to the method: as §1, §2
Next, by using a RNA extraction kit (trade name: “TRIzol (registered trademark) Reagent, manufactured by Life Technologies Japan Ltd.) in accordance with the protocol accompanying the kit, total RNA was extracted from the epidermal cells in the dish to obtain an extract containing total RNA for each sample. Subsequently, by using a cDNA preparation kit (trade name (product number): “High Capacity RNA-to-cDNA Kit (4387406)”, manufactured by Life Technologies Japan Ltd.) in accordance with the protocol accompanying the kit, reverse transcription was performed on RNA in the extract to obtain cDNA from the RNA in the extract. […]
In the RT-PCR, the mRNA levels of type 17 collagen (manufactured by Life Technologies Japan Ltd., primer: Hs009900361_ml) as a target gene and glutathione synthetase (GSS, manufactured by Life Technologies Japan Ltd., primer: Hs01547656_ml) were measured. […]
First, in the samples and the control sample, the mRNA levels (gene expression levels) of the two target genes (type 17 collagen and glutathione synthetase) were each calculated. […] Specifically, values obtained by dividing the mRNA levels of the two target genes by the mRNA level of GAPDH (relative values) were each determined.
Then, the ratio of the correction value obtained in each sample to the correction value in the control sample, which was defined as 100, was determined (gene expression increase rate (%)). […]

On to Glu-Hyp [EO, reference compound], for which, in the assay on type 17 collagen gene, the “Assessment (promoting action on type 17 collagen gene expression)” value is reported as “−” and the “Gene expression increase rate (type 17 collagen gene)” value came to 100 ± 6.46%. Further, the “promoting action on type 17 collagen gene expression (in words)” value in the assay on type 17 collagen gene (discussion of Table 1) is listed as “did not exhibit an evident promoting action”.

As for Glu-[Hyp]-Gly [EOG], in assay [1], the “Assessment (promoting action on glutathione synthetase gene expression)” value is “+ (In samples with “+”, the gene expression increase rate (%) exceeded 100)” and the “Gene expression increase rate (glutathione synthetase gene)” value came out at 131 ± 10%. Also, in the assay with type 17 collagen gene, the “Assessment (promoting action on type 17 collagen gene expression)” value is on record as “+ (In samples with “+”, the gene expression increase rate (%) exceeded 100)” and the “Gene expression increase rate (type 17 collagen gene)” value is 144 ± 17.01%.

As to Gly-Pro [GP], in assay [1], the “Assessment (promoting action on glutathione synthetase gene expression)” value is recorded as “+ (In samples with “+”, the gene expression increase rate (%) exceeded 100)” and the “Gene expression increase rate (glutathione synthetase gene)” value stood at 106 ± 2%. Also, in the assay on type 17 collagen gene, the “Assessment (promoting action on type 17 collagen gene expression)” value is given as “++” and the “Gene expression increase rate (type 17 collagen gene)” value is recorded as 201 ± 8.42%.

(Values after US20220193180A1, “AGING PROGRESSION SUPPRESSING AGENT, AND FOOD OR BEVERAGE PRODUCT COMPRISING SAME” (NITTA GELATIN INC., priority 2019, published 2022).)
